Columns and labels:
Format in all cases: cell-based, human
KM12 = assay: NCI growth inhibition, KM12; settings: KM12 (Colon)
A498 = assay: NCI growth inhibition, A498; settings: A498 (Renal)
MDA-MB-231/ATCC = assay: NCI growth inhibition, MDA-MB-231/ATCC; settings: MDA-MB-231/ATCC (Breast)
HL-60 (TB) = assay: NCI growth inhibition, HL-60 (TB); settings: HL-60(TB) (Leukemia)
SK-MEL-5 = assay: NCI growth inhibition, SK-MEL-5; settings: SK-MEL-5 (Melanoma)
OVCAR-8 = assay: NCI growth inhibition, OVCAR-8; settings: OVCAR-8 (Ovarian)
OVCAR-4 = assay: NCI growth inhibition, OVCAR-4; settings: OVCAR-4 (Ovarian)
SW-620 = assay: NCI growth inhibition, SW-620; settings: SW-620 (Colon)
T-47D = assay: NCI growth inhibition, T-47D; settings: T-47D (Breast)
SR = assay: NCI growth inhibition, SR; settings: SR (Leukemia)
NCI-H322M = assay: NCI growth inhibition, NCI-H322M; settings: NCI-H322M (Non-Small Cell Lung)
RPMI-8226 = assay: NCI growth inhibition, RPMI-8226; settings: RPMI-8226 (Leukemia)
SF-539 = assay: NCI growth inhibition, SF-539; settings: SF-539 (CNS)

SMILES: CC(=O)N[C@H]1CC[C@H](Nc2nc(NCc3ccc(-c4ccccc4)nc3)c3ncn(C(C)C)c3n2)CC1 [Compound 87]
- GI50 (KM12): < 10 nM
- GI50 (A498): 100 nM
- GI50 (MDA-MB-231/ATCC): < 10 nM
- GI50 (HL-60 (TB)): < 10 nM
- GI50 (SK-MEL-5): 28 nM
- GI50 (OVCAR-8): 33 nM
- GI50 (OVCAR-4): 48 nM
- GI50 (SW-620): < 10 nM
- GI50 (T-47D): 48 nM
- GI50 (SR): 32 nM
- GI50 (NCI-H322M): 21 nM
- GI50 (RPMI-8226): < 10 nM
- GI50 (SF-539): 81 nM
